This is an account of results in ChEMBL document CHEMBL4622874, “Discovery of ORN0829, a potent dual orexin 1/2 receptor antagonist for the treatment of insomnia” (Bioorg Med Chem, 2020).

The target in data set [1] is T1, Orexin/Hypocretin receptor type 1 (Homo sapiens, UniProt O43613).
T1 sequence (O43613 whole entry): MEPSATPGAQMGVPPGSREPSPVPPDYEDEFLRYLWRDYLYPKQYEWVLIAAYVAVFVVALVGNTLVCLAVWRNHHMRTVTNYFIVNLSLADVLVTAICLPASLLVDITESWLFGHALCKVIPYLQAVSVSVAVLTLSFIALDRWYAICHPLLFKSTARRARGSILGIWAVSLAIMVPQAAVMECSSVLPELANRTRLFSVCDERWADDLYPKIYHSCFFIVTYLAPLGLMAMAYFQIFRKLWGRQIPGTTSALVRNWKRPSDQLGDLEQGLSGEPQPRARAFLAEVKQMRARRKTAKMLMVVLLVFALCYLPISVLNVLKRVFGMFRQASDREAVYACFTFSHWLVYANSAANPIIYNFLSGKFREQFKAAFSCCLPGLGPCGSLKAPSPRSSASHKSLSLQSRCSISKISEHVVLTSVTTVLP
The data set is described as follows: Antagonist activity at human recombinant OX1R expressed in CHOK1 cells assessed as inhibition of orexin A-induced intracellular Ca2+ release preincubated for 30 mins followed by orexin-A stimulation by Fluo4-AM dye based fluorescence analysis. In kind it is functional, cell-based, CHO-K1.

The nature of data set [2]: Drug metabolism in human liver microsomes incubated for 15 mins. In kind it is ADME, Microsome. As to conditions: read-out: Drug metabolism; call rule not given here.
Data set [3] in a line: Lipophilicity, log D of the compound at pH 7.4 by HPLC analysis. Type of data set: physicochemical. As to conditions: buffer.
Data set [4] concerns the target T2, Orexin receptor type 2 (Homo sapiens, UniProt O43614).
T2 sequence (O43614 whole entry): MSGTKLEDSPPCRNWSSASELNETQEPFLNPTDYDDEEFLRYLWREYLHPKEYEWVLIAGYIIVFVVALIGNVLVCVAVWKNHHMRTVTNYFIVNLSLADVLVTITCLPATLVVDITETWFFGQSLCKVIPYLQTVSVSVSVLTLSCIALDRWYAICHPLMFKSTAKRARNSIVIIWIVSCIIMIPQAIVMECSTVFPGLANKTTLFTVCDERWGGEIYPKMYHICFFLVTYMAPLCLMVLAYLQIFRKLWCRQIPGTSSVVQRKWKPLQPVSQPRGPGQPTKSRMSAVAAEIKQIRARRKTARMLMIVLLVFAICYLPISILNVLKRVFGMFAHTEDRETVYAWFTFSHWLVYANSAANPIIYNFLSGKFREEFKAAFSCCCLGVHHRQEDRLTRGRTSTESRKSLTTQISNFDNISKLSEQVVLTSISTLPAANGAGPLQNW
The data set is described as follows: Antagonist activity at human recombinant OX2R expressed in CHOK1 cells assessed as inhibition of orexin A-induced intracellular Ca2+ release preincubated for 30 mins followed by orexin-A stimulation by Fluo-4AM dye based fluorescence analysis. In kind it is functional, cell-based, CHO-K1.

In data set [5] the target is P-gp (ABCB1) (Homo sapiens, UniProt P08183). The data set is described as follows: Substrate activity at P-gp (unknown origin) assessed as efflux ratio. In kind it is ADME. As to conditions: not told.
P-gp (ABCB1), sequence (P08183 whole entry): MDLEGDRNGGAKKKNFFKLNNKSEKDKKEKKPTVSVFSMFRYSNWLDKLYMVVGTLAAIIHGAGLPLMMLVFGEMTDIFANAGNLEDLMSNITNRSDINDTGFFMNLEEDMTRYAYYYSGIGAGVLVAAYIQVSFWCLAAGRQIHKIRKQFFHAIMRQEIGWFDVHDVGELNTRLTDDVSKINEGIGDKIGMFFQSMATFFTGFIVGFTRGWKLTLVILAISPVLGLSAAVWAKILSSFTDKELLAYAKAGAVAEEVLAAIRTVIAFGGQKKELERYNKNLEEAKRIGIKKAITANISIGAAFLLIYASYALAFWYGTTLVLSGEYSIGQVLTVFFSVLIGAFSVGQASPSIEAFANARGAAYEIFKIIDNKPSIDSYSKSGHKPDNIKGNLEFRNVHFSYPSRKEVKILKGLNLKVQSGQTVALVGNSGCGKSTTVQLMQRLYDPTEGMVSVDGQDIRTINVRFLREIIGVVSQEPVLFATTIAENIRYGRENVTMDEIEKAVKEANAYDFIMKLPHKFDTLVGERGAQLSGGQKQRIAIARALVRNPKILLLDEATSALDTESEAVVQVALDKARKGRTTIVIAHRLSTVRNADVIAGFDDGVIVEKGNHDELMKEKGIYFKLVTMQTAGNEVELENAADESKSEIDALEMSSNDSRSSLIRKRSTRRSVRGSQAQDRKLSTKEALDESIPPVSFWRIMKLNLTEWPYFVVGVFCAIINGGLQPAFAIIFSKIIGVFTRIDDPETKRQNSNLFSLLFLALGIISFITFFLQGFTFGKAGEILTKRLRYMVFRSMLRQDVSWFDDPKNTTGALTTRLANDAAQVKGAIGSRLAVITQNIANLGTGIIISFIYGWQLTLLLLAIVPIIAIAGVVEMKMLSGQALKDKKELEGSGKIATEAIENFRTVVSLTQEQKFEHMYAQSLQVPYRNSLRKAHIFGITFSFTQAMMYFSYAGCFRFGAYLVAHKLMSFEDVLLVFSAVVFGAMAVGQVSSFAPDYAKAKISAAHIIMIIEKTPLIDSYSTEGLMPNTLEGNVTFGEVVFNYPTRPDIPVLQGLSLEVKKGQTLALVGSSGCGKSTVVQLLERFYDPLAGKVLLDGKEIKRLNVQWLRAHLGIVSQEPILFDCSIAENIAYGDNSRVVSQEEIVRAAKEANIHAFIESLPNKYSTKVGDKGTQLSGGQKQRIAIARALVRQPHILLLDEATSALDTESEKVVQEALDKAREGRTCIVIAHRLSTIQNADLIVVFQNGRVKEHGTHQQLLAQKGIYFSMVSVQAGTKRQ
The target of data set [6] is Cytochrome P450 3A4 (Homo sapiens, UniProt P08684). The data set is described as follows: Time dependent inhibition of CYP3A4 (unknown origin). In kind it is ADME.
Cytochrome P450 3A4, sequence (P08684 whole entry): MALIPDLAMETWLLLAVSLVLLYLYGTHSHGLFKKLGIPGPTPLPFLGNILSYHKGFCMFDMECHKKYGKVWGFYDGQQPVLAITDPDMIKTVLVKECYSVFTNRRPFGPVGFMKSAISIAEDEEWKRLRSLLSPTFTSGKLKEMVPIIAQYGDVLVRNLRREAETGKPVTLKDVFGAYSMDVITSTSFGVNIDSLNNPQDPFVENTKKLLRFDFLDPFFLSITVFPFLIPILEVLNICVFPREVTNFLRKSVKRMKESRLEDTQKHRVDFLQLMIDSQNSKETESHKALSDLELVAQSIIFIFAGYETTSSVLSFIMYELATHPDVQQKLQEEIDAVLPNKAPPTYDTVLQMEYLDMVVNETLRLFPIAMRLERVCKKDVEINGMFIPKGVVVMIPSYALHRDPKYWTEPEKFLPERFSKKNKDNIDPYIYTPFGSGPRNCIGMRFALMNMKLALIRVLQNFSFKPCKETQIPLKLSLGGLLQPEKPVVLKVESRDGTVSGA
Data set [7] has as its target Voltage-gated inwardly rectifying potassium channel KCNH2 (Homo sapiens, UniProt Q12809). The data set can be described thus: Inhibition of human ERG.

Voltage-gated inwardly rectifying potassium channel KCNH2, sequence (Q12809 whole entry): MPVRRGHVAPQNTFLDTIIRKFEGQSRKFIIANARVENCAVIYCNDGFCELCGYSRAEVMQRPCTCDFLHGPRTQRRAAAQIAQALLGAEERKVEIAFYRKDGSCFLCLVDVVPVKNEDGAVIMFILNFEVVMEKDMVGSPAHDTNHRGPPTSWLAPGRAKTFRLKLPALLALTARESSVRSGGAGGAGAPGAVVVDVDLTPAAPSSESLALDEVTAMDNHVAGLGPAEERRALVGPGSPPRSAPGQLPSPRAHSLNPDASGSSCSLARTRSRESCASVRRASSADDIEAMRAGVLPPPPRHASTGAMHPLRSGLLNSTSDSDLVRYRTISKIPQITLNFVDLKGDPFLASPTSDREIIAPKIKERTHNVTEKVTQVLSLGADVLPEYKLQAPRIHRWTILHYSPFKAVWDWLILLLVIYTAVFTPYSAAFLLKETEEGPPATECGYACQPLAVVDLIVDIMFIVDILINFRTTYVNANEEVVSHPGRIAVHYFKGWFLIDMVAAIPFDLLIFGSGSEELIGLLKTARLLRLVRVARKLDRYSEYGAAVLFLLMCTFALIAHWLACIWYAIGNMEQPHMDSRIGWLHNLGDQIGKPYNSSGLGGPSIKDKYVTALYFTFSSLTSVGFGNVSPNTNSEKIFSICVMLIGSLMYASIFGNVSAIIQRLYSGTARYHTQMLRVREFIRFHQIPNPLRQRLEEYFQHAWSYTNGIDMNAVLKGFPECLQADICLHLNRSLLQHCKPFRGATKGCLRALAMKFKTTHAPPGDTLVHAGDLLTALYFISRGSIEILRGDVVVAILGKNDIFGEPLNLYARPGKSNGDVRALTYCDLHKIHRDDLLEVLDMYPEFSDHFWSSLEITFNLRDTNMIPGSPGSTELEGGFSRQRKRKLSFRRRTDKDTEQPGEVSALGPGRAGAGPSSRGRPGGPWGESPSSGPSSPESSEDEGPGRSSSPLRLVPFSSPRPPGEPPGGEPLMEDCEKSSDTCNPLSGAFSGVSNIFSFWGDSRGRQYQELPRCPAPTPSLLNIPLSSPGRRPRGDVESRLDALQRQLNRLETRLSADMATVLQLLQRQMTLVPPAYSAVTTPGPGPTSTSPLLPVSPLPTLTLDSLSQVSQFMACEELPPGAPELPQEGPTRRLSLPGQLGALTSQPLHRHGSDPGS

In the case of `Cc1ccc(-n2nccn2)c(C(=O)N2CCC[C@H]2Cn2ccc(-c3ccc(F)cn3)n2)c1`, the figures for the IC50 in data set [1] and in data set [4] were 3.3 nM and 3.15 nM, respectively. In data set [2], the metabolised at 0.25 h came to 37.2%. Further, the logD in data set [3] amounted to 3.08. Further, the efflux ratio in data set [5] was determined as 1.96.

Take `Cc1ccc(-n2nccn2)c(C(=O)N2CCCO[C@H]2Cn2ncn(-c3ccc(F)cn3)c2=O)c1`: the IC50 in data set [1] came to 85.5 nM; in data set [4] it was 5.4 nM. The metabolised at 0.25 h in data set [2] was 15.6%. For the same compound, the logD in data set [3] is 2.52. In addition, in data set [5], the efflux ratio was 2.88.

Take `Cc1ccc(-n2nccn2)c(C(=O)N2CSC[C@H]2Cn2ccc(-c3ccc(F)cn3)n2)c1`: the IC50 in data set [1] is 4.6 nM; in data set [4], 13.1 nM. Besides, the metabolised at 0.25 h in data set [2] was 73.7%. Besides, the logD in data set [3] came out at 3.08. Further, the efflux ratio in data set [5] was determined as 1.13.

With `Cc1ccc(-n2nccn2)c(C(=O)N2CCCO[C@H]2Cc2cnn(-c3ccc(F)cn3)c2)c1`, the IC50 in data set [1] was 3.98 nM. For the same compound, the metabolised at 0.25 h in data set [2] came out at 29.7%. For the same compound, the logD in data set [3] was 3.03.

`Cc1ccc(-n2nccn2)c(C(=O)N2COCC[C@H]2Cn2ccc(-c3ccc(F)cn3)n2)c1`: the IC50 in data set [1] was determined as 3.36 nM; in data set [4], 3.41 nM. In addition, in data set [2], the metabolised at 0.25 h came to 24.1%. This compound also had a logD in data set [3] of 2.39. In addition, in data set [5], the efflux ratio was found to be 3.08.

Consider `Cc1ccc(-n2nccn2)c(C(=O)N2CCO[C@H]2Cn2ccc(-c3ccc(F)cn3)n2)c1`, for which the IC50 in data set [1] was 8.08 nM. For the same compound, the metabolised at 0.25 h in data set [2] came out at 15.7%. In addition, the logD in data set [3] amounted to 2.67.

For `Cc1ccc(-n2nccn2)c(C(=O)N2CCCO[C@H]2Cn2cc(-c3ccc(F)cn3)nn2)c1`, the IC50 is 12.1 nM in data set [1] and 3.07 nM in data set [4]. For the same compound, the metabolised at 0.25 h in data set [2] was found to be 4.3%. The compound also registered a logD in data set [3] of 2.38. For the same compound, the efflux ratio in data set [5] is 4.97.

With `Cc1ccc(-n2nccn2)c(C(=O)N2COC[C@H]2Cn2ccc(-c3ccc(F)cn3)n2)c1`, the IC50 in data set [1] turned out to be 149 nM; in data set [4], 133 nM. Moreover, the metabolised at 0.25 h in data set [2] worked out at 18%. In data set [3], this compound registered a logD of 2.52. The efflux ratio in data set [5] was determined as 1.65.

As for `O=C(c1cc(F)ccc1-c1ncccn1)N1CCCO[C@H]1Cn1ccc(-c2ccc(F)cn2)n1`, the IC50 in data set [1] is 3.22 nM; in data set [4] it was 4.58 nM. For the same compound, the metabolised at 0.25 h in data set [2] was found to be 28.9%. This compound registered a logD in data set [3] of 2.3. Moreover, in data set [5], the efflux ratio is 5.36.

As for `Cc1ccc(-n2nccn2)c(C(=O)N2CCOC[C@H]2Cn2ccc(-c3ccc(F)cn3)n2)c1`, the half-maximal inhibitory concentration (IC50) in data set [1] is 3.5 nM; in data set [4], 15 nM. In addition, the metabolised at 0.25 h in data set [2] is 24.5%. Besides, in data set [3], the logD came to 2.33. The efflux ratio in data set [5] is 3.56.

With `Cc1ccc(-n2nccn2)c(C(=O)N2CCCO[C@@H]2Cn2ccc(-c3ccc(F)cn3)n2)c1`, the IC50 was determined as 344 nM in data set [1] and 274 nM in data set [4]. In data set [3], this compound registered a log distribution coefficient (logD) of 2.56.

Consider `Cc1ccc(-n2nccn2)c(C(=O)N2CCCO[C@H]2Cn2cc(-c3ccc(F)cn3)cn2)c1`, for which the IC50 in data set [1] stood at 5.39 nM. In data set [2], the metabolised at 0.25 h was determined as 15.8%. The compound also came in with a pH-dependent lipophilicity (logD) in data set [3] of 2.38.

As to `Cc1ccc(-n2nccn2)c(C(=O)N2CCS[C@H]2Cn2ccc(-c3ccc(F)cn3)n2)c1`, the IC50 in data set [1] amounted to 61.1 nM; in data set [4], 2300 nM. The metabolised at 0.25 h in data set [2] worked out at 53%. In data set [3], this compound came in with a logD of 3.51. Moreover, the efflux ratio in data set [5] came to 1.34.

As to `CCN(CCn1ccc(-c2ccc(F)cn2)n1)C(=O)c1cc(C)ccc1-n1nccn1`, the metabolised at 0.25 h in data set [2] is 20.2%. In addition, in data set [3], the logD was found to be 2.78. The efflux ratio in data set [5] is 1.51.

For the compound `Cc1ccc(-n2nccn2)c(C(=O)N2CCCC[C@@H]2Cn2ccc(-c3ccc(F)cn3)n2)c1`, the IC50 amounted to 20.8 nM in data set [1] and 52.4 nM in data set [4]. Further, in data set [3], the logD worked out at 2.95.

For `O=C(c1cc(F)ccc1-n1nccn1)N1CCCO[C@H]1Cn1ccc(-c2ccc(F)cn2)n1`, the values for the IC50 in data set [1] and in data set [4] were 3.95 nM and 1.96 nM, respectively. Also, the metabolised at 0.25 h in data set [2] is 43.2%. Further, the log distribution coefficient (logD) in data set [3] was determined as 2.46. In addition, the efflux ratio in data set [5] is 2.64.

On to `Cc1ccc(-n2nccn2)c(C(=O)N2CCO[C@@H]2Cn2ccc(-c3ccc(F)cn3)n2)c1`, for which the half-inhibitory concentration (IC50) in data set [1] amounted to 2690 nM. The logD in data set [3] was found to be 2.68.

As for `Cc1ccc(-n2nccn2)c(C(=O)N2CCC[C@@H]2Cn2ccc(-c3ccc(F)cn3)n2)c1`, the IC50 in data set [1] stood at 363 nM; in data set [4] it was 313 nM. Moreover, the logD in data set [3] came out at 3.06.

On to `Cc1ccc(-n2nccn2)c(C(=O)N2CCCO[C@H]2Cn2cc(-c3ccc(F)cc3)cn2)c1`, for which, in data set [1], the IC50 was 2.21 nM. The metabolised at 0.25 h in data set [2] worked out at 24.8%. In data set [3], this compound returned a logD of 3.15. In addition, the “inhibition (INH)” value in data set [6] and in data set [7] was “Active” in each case.

Consider `Cc1ccc(-n2nccn2)c(C(=O)N2CCCO[C@H]2Cc2noc(-c3ccc(F)cn3)n2)c1`, for which the IC50 in data set [1] was 4.54 nM; in data set [4] it was 3.6 nM. In data set [2], the metabolised at 0.25 h is 19.5%. The logD in data set [3] came to 2.53. Besides, in data set [5], the efflux ratio was 3.06.

For the compound `Cc1ccc(-n2nccn2)c(C(=O)N2CCCC[C@H]2Cn2ccc(-c3ccc(F)cn3)n2)c1`, the IC50 is 2.27 nM in data set [1] and 1.64 nM in data set [4]. For the same compound, in data set [2], the metabolised at 0.25 h is 51.9%. In addition, the logD in data set [3] came to 2.96. Further, the efflux ratio in data set [5] was 1.63.

Take `O=C(c1ccccc1-n1nccn1)N1CCCO[C@H]1Cn1ccc(-c2ccc(F)cn2)n1`: the IC50 in data set [1] was 3.76 nM; in data set [4] it was 2.62 nM. The metabolised at 0.25 h in data set [2] came out at 14.6%. This compound showed a logD in data set [3] of 2.3. Also, in data set [5], the efflux ratio is 3.25.

As to `Cc1ccc(-c2ncccn2)c(C(=O)N2CCCO[C@H]2Cn2ccc(-c3ccc(F)cn3)n2)c1`, the values for the IC50 in data set [1] and in data set [4] were 3.29 nM and 3.18 nM, respectively. The metabolised at 0.25 h in data set [2] came out at 26.3%. Also, the logD in data set [3] is 2.36. Besides, in data set [5], the efflux ratio came to 6.74.

Consider `Cc1ccc(-n2nccn2)c(C(=O)N2CCCO[C@H]2Cn2ncc(-c3ccc(F)cn3)n2)c1`, for which the IC50 in data set [1] is 2.9 nM; in data set [4], 1.88 nM. Also, the metabolised at 0.25 h in data set [2] stood at 16.4%. Moreover, the logD in data set [3] worked out at 2.8. For the same compound, in data set [5], the efflux ratio stood at 1.38.
